Source: article PMC9395382 (2022)

Columns and labels:
[1] = system: d(AT)10 (DNA, duplex) ATATATATATATATATATAT; test: fluorescent indicator displacement; conditions: Na+ (10 mM sodium phosphate); pH 7.0, 25 °C; DAPI displaced; DNA 20 μM bp; dye 0.5–50 μM
[2] = system: d(GC)10 (DNA, duplex) GCGCGCGCGCGCGCGCGCGC; test: fluorescent indicator displacement; conditions: Na+ (10 mM sodium phosphate); pH 7.0, 25 °C; EtBr displaced; DNA 20 μM bp; dye 0.5–50 μM
[3] = system: dsDNA (DNA, duplex) CGCGGCGTACAGTGATCTACCATGCCCTGG/CCAGGGCATGGTAGATCACTGTACGCCGCG; test: fluorescence titration, modified McGhee-von Hippel fit; conditions: Na+ (10 mM sodium phosphate), pH 7.0, dye 2 μM, DNA in bp, per base
[4] = system: dsDNA (DNA, duplex) CGCGGCGTACAGTGATCTACCATGCCCTGG/CCAGGGCATGGTAGATCACTGTACGCCGCG; test: fluorescence enhancement; conditions: Na+ (10 mM sodium phosphate), pH 7.0, 25 °C, dye 2 μM, DNA 1 μM

SMILES	binding [1]	binding [2]	further results
CCN(CC)c1ccc(/C=C/c2cc[n+](C)c3ccccc23)cc1	yes	yes	Kb ([3]; n = 2.8 bp per dye): 70000 M⁻¹
CCN(CC)c1ccc(/C=C/c2sc3ccccc3[n+]2C)c(OCCCC[N+](C)(C)C)c1	yes	yes	Kb ([3]; n = 2.5 bp per dye): 121000 M⁻¹
CCN(CC)c1ccc(/C=C/c2sc3ccccc3[n+]2C)cc1	yes	yes	Kb ([3]; n = 2.5 bp per dye): 35000 M⁻¹
COc1ccc(/C=C/c2sc3ccccc3[n+]2C)c(OCCCC[N+](C)(C)C)c1	yes	yes	binding ([4]; F/F0 10.9): yes
CCN(CC)c1ccc(/C=C/c2cc[n+](C)c3ccccc23)c(OCCCC[N+](C)(C)C)c1	yes	yes	Kb ([3]; n = 2.1 bp per dye): 245000 M⁻¹
CCN(CC)c1ccc(/C=C/c2cc[n+](C)cc2)cc1	yes		Kb ([3]; n = 4.4 bp per dye): 10000 M⁻¹
CCN(CC)c1ccc(/C=C/c2cc[n+](C)cc2)c(OCCCC[N+](C)(C)C)c1	yes		Kb ([3]; n = 4.0 bp per dye): 141000 M⁻¹
CCN(CC)c1ccc(/C=C/c2cc[n+](C)cc2)c(OCC[N+](C)(C)C)c1			binding ([4]; F/F0 60.5): yes
CCN(CC)c1ccc(/C=C/c2cc[n+](C)cc2)c(OCCC[N+](C)(C)C)c1			binding ([4]; F/F0 54.8): yes
